{"source": "paper PMC12447755", "about": "“β-Lactamase cleavable antimicrobial peptide–drug conjugates” (Chemical Science, 2025)", "key": {"[1]": {"system": "Pseudomonas aeruginosa strain PAO1", "assay": "Initial susceptibility testing at a fixed concentration", "type": "cell-based", "set-up": "key: Tick (✓) represents OD600 comparable to no-growth control; cross (✗) represents OD600 comparable to growth control without any peptide", "details": "256 μg mL−1 of peptide, overnight incubation, OD600 compared with growth and no-growth controls"}, "[2]": {"system": "P. aeruginosa strain PAO1", "details": "for MIC PAO1: PAO1, 16 h"}, "[3]": {"system": "P. aeruginosa strain PA14", "details": "for MIC PA14: PA14, 16 h"}}, "note": "Like-named read-outs stand apart in the source and are kept apart here. Where a SMILES comes first, the peptide text is derived from it. Where no end group is shown, it is not given here.", "data": [{"compound": "CC(=O)N[C@H](C(=O)N[C@@H](CC(C)C)C(=O)N[C@@H](CCCCN)C(=O)N[C@@H](CCC(N)=O)C(=O)N[C@@H](Cc1ccccc1)C(=O)N[C@H]1CSCCc2cc(nc(NCCCc3ccccc3)n2)CCSC[C@@H](C(=O)N[C@H](C(=O)N[C@@H](CCCCN)C(N)=O)C(C)C)NC(=O)[C@H](Cc2c[nH]c3ccccc23)NC(=O)[C@H](CCCCN)NC(=O)CNC(=O)[C@H](C(C)C)NC(=O)CNC(=O)[C@H](CCCCN)NC1=O)[C@@H](C)O", "note": "[P1-1] (HELM PEPTIDE1{[ac].T.L.K.Q.F.C.K.G.V.G.K.W.C.V.K.[am]}|CHEM1{[c1ccc(CCCNc2nc(CC[*:1])cc(CC[*:2])n2)cc1]}$PEPTIDE1,CHEM1,7:R3-1:R1|PEPTIDE1,CHEM1,14:R3-1:R2$$$V2.0)", "values": [{"measurement": "Inh (inhibition)", "setting": "[1]", "value": "✗"}]}, {"compound": "C[C@@H]1NC(=O)[C@H](Cc2c[nH]c3ccccc23)NC(=O)[C@H](CCCCN)NC(=O)[C@@H](NC(=O)[C@@H](N)Cc2ccccc2)CSCCc2cc(nc(NCCCc3ccccc3)n2)CCSC[C@@H](C(=O)N[C@@H](CCCCN)C(=O)N[C@@H](CCCCN)C(N)=O)NC(=O)[C@H](Cc2c[nH]c3ccccc23)NC(=O)[C@H](CCCCN)NC(=O)[C@H](Cc2ccccc2)NC1=O", "note": "[P2-1] (HELM PEPTIDE1{F.C.K.W.A.F.K.W.C.K.K.[am]}|CHEM1{[c1ccc(CCCNc2nc(CC[*:1])cc(CC[*:2])n2)cc1]}$PEPTIDE1,CHEM1,2:R3-1:R1|PEPTIDE1,CHEM1,9:R3-1:R2$$$V2.0)", "values": [{"measurement": "MIC PAO1", "setting": "[2]", "value": 16, "unit": "µg/mL"}, {"measurement": "Inh (inhibition)", "setting": "[1]", "value": "✓"}, {"measurement": "MIC of peptide-staple combinations (heat map)", "setting": "P. aeruginosa", "value": "best activity"}, {"measurement": "MIC", "setting": "P. aeruginosa; 18 h", "value": "8 to 16", "unit": "µg/mL"}, {"measurement": "MIC PA14", "setting": "[3]", "value": 16, "unit": "µg/mL"}]}, {"compound": "C[C@H](NC(=O)[C@H](Cc1c[nH]c2ccccc12)NC(=O)[C@H](CCCCN)NC(=O)[C@H](CS)NC(=O)[C@@H](N)Cc1ccccc1)C(=O)N[C@@H](Cc1ccccc1)C(=O)N[C@@H](CCCCN)C(=O)N[C@@H](Cc1c[nH]c2ccccc12)C(=O)N[C@@H](CS)C(=O)N[C@@H](CCCCN)C(=O)N[C@@H](CCCCN)C(N)=O", "note": "[P2] (H-FCKWAFKWCKK-NH2)", "values": [{"measurement": "MIC PAO1", "setting": "[2]", "value": 32, "unit": "µg/mL"}, {"measurement": "Inh (inhibition)", "setting": "[1]", "value": "✗"}, {"measurement": "MIC PA14", "setting": "[3]", "value": 32, "unit": "µg/mL"}]}, {"compound": "CC(=O)N[C@@H](Cc1c[nH]c2ccccc12)C(=O)N[C@H]1CSCCc2cc(nc(NCCCc3ccccc3)n2)CCSC[C@@H](C(=O)N[C@@H](Cc2ccccc2)C(N)=O)NC(=O)CNC(=O)[C@H](CCCNC(=N)N)NC(=O)[C@H](Cc2ccccc2)NC(=O)[C@H](CCCCN)NC(=O)[C@H](CCCCN)NC(=O)[C@H](CC(C)C)NC1=O", "note": "[P3-1] (HELM PEPTIDE1{[ac].W.C.L.K.K.F.R.G.C.F.[am]}|CHEM1{[c1ccc(CCCNc2nc(CC[*:1])cc(CC[*:2])n2)cc1]}$PEPTIDE1,CHEM1,3:R3-1:R1|PEPTIDE1,CHEM1,10:R3-1:R2$$$V2.0)", "values": [{"measurement": "Inh (inhibition)", "setting": "[1]", "value": "✗"}]}, {"compound": "CC[C@H](C)[C@H](NC(=O)[C@H](CCCCN)NC(=O)[C@H](CCCCN)NC(=O)[C@@H]1CSCCc2cc(nc(NCCCc3ccccc3)n2)CCSC[C@H](NC(=O)[C@H](CC(C)C)NC(=O)[C@H](CCCNC(=N)N)NC(=O)[C@H](CCCNC(=N)N)NC(=O)[C@H](Cc2ccccc2)NC(=O)[C@@H](N)CCCNC(=N)N)C(=O)N[C@@H](CCCCN)C(=O)N[C@@H](CCCCN)C(=O)N[C@@H](Cc2c[nH]c3ccccc23)C(=O)N[C@@H](CCCNC(=N)N)C(=O)N[C@@H](CCCCN)C(=O)N[C@@H](CCCNC(=N)N)C(=O)N1)C(N)=O", "note": "[P4-1] (HELM PEPTIDE1{R.F.R.R.L.C.K.K.W.R.K.R.C.K.K.I.[am]}|CHEM1{[c1ccc(CCCNc2nc(CC[*:1])cc(CC[*:2])n2)cc1]}$PEPTIDE1,CHEM1,6:R3-1:R1|PEPTIDE1,CHEM1,13:R3-1:R2$$$V2.0)", "values": [{"measurement": "Inh (inhibition)", "setting": "[1]", "value": "✓"}]}, {"compound": "CC[C@H](C)[C@H](NC(=O)[C@H](CCCCN)NC(=O)[C@H](CCCCN)NC(=O)[C@H](CS)NC(=O)[C@H](CCCNC(=N)N)NC(=O)[C@H](CCCCN)NC(=O)[C@H](CCCNC(=N)N)NC(=O)[C@H](Cc1c[nH]c2ccccc12)NC(=O)[C@H](CCCCN)NC(=O)[C@H](CCCCN)NC(=O)[C@H](CS)NC(=O)[C@H](CC(C)C)NC(=O)[C@H](CCCNC(=N)N)NC(=O)[C@H](CCCNC(=N)N)NC(=O)[C@H](Cc1ccccc1)NC(=O)[C@@H](N)CCCNC(=N)N)C(N)=O", "note": "[P4] (H-RFRRLCKKWRKRCKKI-NH2)", "values": [{"measurement": "Inh (inhibition)", "setting": "[1]", "value": "✗"}]}, {"compound": "CCCCCCCC(=O)NCC(=O)N[C@H]1CSCCc2cc(nc(NCCCc3ccccc3)n2)CCSC[C@@H](C(=O)N[C@@H](CC(C)C)C(N)=O)NC(=O)[C@H](CCCCN)NC(=O)[C@H](CCCCN)NC(=O)[C@H]([C@@H](C)CC)NC(=O)[C@H](Cc2ccccc2)NC(=O)[C@H](CCCCN)NC(=O)[C@H](CC(C)C)NC1=O", "note": "[P5-1] (HELM PEPTIDE1{[CCCCCCCC(=O)[*:2]].G.C.L.K.F.I.K.K.C.L.[am]}|CHEM1{[c1ccc(CCCNc2nc(CC[*:1])cc(CC[*:2])n2)cc1]}$PEPTIDE1,CHEM1,3:R3-1:R1|PEPTIDE1,CHEM1,10:R3-1:R2$$$V2.0)", "values": [{"measurement": "Inh (inhibition)", "setting": "[1]", "value": "✗"}]}, {"compound": "CC(C)C[C@H](NC(=O)[C@H](Cc1c[nH]cn1)NC(=O)[C@H](CCCCN)NC(=O)[C@H](CS)NC(=O)[C@H](Cc1ccc(O)cc1)NC(=O)[C@H](CC(N)=O)NC(=O)[C@H](CCC(N)=O)NC(=O)[C@@H](NC(=O)[C@H](Cc1c[nH]c2ccccc12)NC(=O)[C@@H](N)CCCCN)C(C)C)C(=O)NCC(=O)N[C@@H](CCCNC(=N)N)C(=O)N[C@@H](CCCCN)C(=O)N[C@@H](CS)C(=O)N[C@@H](Cc1c[nH]cn1)C(=O)N[C@H](C(=O)N[C@@H](CC(C)C)C(=O)N[C@@H](CCCCN)C(=O)N[C@H](C(N)=O)[C@@H](C)O)[C@@H](C)O", "note": "[P6] (H-KWVQNYCKHLGRKCHTLKT-NH2)", "values": [{"measurement": "Inh (inhibition)", "setting": "[1]", "value": "✗"}]}, {"compound": "CC(C)C[C@@H]1NC(=O)[C@H](CCCNC(=N)N)NC(=O)[C@H](Cc2c[nH]cn2)NC(=O)[C@@H](NC(=O)[C@H](CC(C)C)NC(=O)[C@H](CCCCN)NC(=O)[C@H](CCCNC(=N)N)NC(=O)[C@H](Cc2ccccc2)NC(=O)[C@H](CC(C)C)NC(=O)[C@@H](N)CC(N)=O)CSCCc2cc(nc(NCCCc3ccccc3)n2)CCSC[C@@H](C(=O)N[C@@H](Cc2ccccc2)C(=O)NCC(=O)N[C@@H](Cc2ccc(O)cc2)C(=O)N[C@H](C(=O)N[C@@H](CC(C)C)C(=O)N[C@@H](CCCNC(=N)N)C(N)=O)[C@@H](C)O)NC(=O)[C@H](CCCNC(=N)N)NC(=O)[C@H](CCCNC(=N)N)NC(=O)[C@H](Cc2ccccc2)NC1=O", "note": "[P7-1] (HELM PEPTIDE1{N.L.F.R.K.L.C.H.R.L.F.R.R.C.F.G.Y.T.L.R.[am]}|CHEM1{[c1ccc(CCCNc2nc(CC[*:1])cc(CC[*:2])n2)cc1]}$PEPTIDE1,CHEM1,7:R3-1:R1|PEPTIDE1,CHEM1,14:R3-1:R2$$$V2.0)", "values": [{"measurement": "Inh (inhibition)", "setting": "[1]", "value": "✗"}]}, {"compound": "CC(=O)OCC1=C(C(=O)O)N2C(=O)[C@@H](NC(=O)CCCNc3nc4cc(n3)CCSC[C@H](N)C(=O)N[C@@H](Cc3ccccc3)C(=O)N[C@@H](C)C(=O)N[C@@H](CCCCN)C(=O)N[C@@H](Cc3c[nH]c5ccccc35)C(=O)N[C@@H](C)C(=O)N[C@@H](Cc3ccccc3)C(=O)N[C@H](C(=O)N[C@@H](Cc3c[nH]c5ccccc35)C(=O)N[C@@H](CC(C)C)C(=O)N[C@@H](CCCCN)C(=O)N[C@@H](CCCCN)C(N)=O)CSCC4)[C@H]2SC1", "note": "[P11-8]", "values": [{"measurement": "PAO1 MIC", "setting": "[2]; PAO1, 18 h", "value": "> 32", "unit": "µM"}, {"measurement": "PA14 MIC", "setting": "[3]; PA14, 18 h", "value": "> 32", "unit": "µM"}]}, {"compound": "CC(=O)OCC1=C(C(=O)O)N2C(=O)[C@@H](NC(=O)CCCNc3nc4cc(n3)CCSC[C@H](NC(=O)[C@H](CCCCN)NC(=O)[C@H](C)NC(=O)[C@H](Cc3ccccc3)NC(=O)[C@@H](N)CCCCN)C(=O)N[C@@H](C)C(=O)N[C@@H](Cc3ccccc3)C(=O)N[C@@H](CCCCN)C(=O)N[C@@H](Cc3c[nH]c5ccccc35)C(=O)N[C@@H](CC(C)C)C(=O)N[C@@H](CCCCN)C(=O)N[C@H](C(N)=O)CSCC4)[C@H]2SC1", "note": "[P12-8]", "values": [{"measurement": "PAO1 MIC", "setting": "[2]; PAO1, 18 h", "value": "> 33", "unit": "µM"}, {"measurement": "PA14 MIC", "setting": "[3]; PA14, 18 h", "value": "> 33", "unit": "µM"}]}, {"compound": "CC[C@H](C)CCCCC(=O)N[C@@H](CCN)C(=O)N[C@H](C(=O)N[C@@H](CCN)C(=O)N[C@H]1CCNC(=O)[C@H]([C@@H](C)O)NC(=O)[C@H](CCN)NC(=O)[C@H](CCN)NC(=O)[C@H](CC(C)C)NC(=O)[C@@H](Cc2ccccc2)NC(=O)[C@H](CCN)NC1=O)[C@@H](C)O", "note": "[Polymyxin B, reference compound] (HELM PEPTIDE1{[CC[C@H](C)CCCCC(=O)[*:2]].[Dab].T.[Dab].[Dab].[Dab].[dF].L.[Dab].[Dab].T}$PEPTIDE1,PEPTIDE1,5:R3-11:R2$$$V2.0; N-terminus assumed; bridges inferred)", "values": [{"measurement": "MIC for PAO1", "setting": "[2]; PAO1, 18 h", "value": 1.7, "unit": "µM"}, {"measurement": "PAO1 MIC", "setting": "[2]; PAO1, 18 h", "value": 0.83, "unit": "µM"}, {"measurement": "PAO1 MIC", "setting": "[2]; Table S3, initial MIC values", "value": 2, "unit": "µg/mL"}, {"measurement": "PAO1 MIC", "setting": "[2]; Table S4, cephalosporin-based staple 8 at different positions", "value": 1, "unit": "µg/mL"}, {"measurement": "MIC for PA14", "setting": "[3]; PA14, 18 h", "value": 0.83, "unit": "µM"}, {"measurement": "PA14 MIC", "setting": "[3]; Table S3, initial MIC values", "value": 1, "unit": "µg/mL"}, {"measurement": "PA14 MIC", "setting": "[3]; Table S4", "value": 0.83, "unit": "µM"}]}, {"compound": "KWVQNYMKHLGRKAHTLKT-NH2 [P6a, reference compound]", "values": [{"measurement": "Inh (inhibition)", "setting": "[1]", "value": "✓"}]}, {"compound": "RFRRLRKKWRKRLKKI-NH2 [P4a, reference compound]", "values": [{"measurement": "Inh (inhibition)", "setting": "[1]", "value": "✓"}]}]}
